Assay results as given in article PMC5267425, “Identification of small molecule modulators of HIV-1 Tat and Rev protein accumulation” (Retrovirology, 2017).

Tested on: PBMCs
Assay: Trypan blue exclusion, PBMCs
Assay type: cell-based, human
Conditions: PBMCs
Procedure: To examine the effect of compounds on viral replication, studies were carried out in peripheral blood mononuclear cells (PBMCs). PBMCs were isolated from healthy (HIV-uninfected) volunteer blood donors as described by Dobson-Belaire et al.. Informed consent was obtained from participants in accordance with the guidelines for conduct of clinical research at the University of Toronto and St. Michael’s Hospital, Toronto, Ontario, Canada. Stored PBMCs were thawed, washed with RPMI 1640 complete medium and cultured in RPMI 1640 complete medium containing 2 μg/mL of PHA-L (Sigma-Aldrich) and 20 U/mL of IL-2 (BD Pharmingen) for 72 h. Subsequently, cells were counted and a portion of the cells was separated to another tube for uninfected control treatments. The remaining PBMCs were resuspended in media containing HIV-1 BaL at a multiplicity of infection (MOI) of approximately 0.01 and infected by spinoculation, following which cells were washed twice with room temperature RPMI 1640 complete medium and resuspended to a concentration of 5 × 10^5 cells/mL in complete RPMI 1640 containing 20 U/mL of IL-2. Compounds were added to infected PBMCs or uninfected control PBMCs. Azidothymidine (AZT, Sigma-Aldrich) was used as control treatment at a final concentration of 3.74 μM. On day 4 post infection, culture medium was replenished with the compounds and IL-2 in fresh complete RPMI 1640. On days 2, 4, 6 and 8 post infection, culture supernatant was harvested, virus lysed by adjusting to 1% TritonX-100 and stored at −20 °C for p24 antigen ELISA. A fraction of the culture was harvested to assess percent cell viability by trypan blue exclusion using Glasstic slides (Kova). Relative percent cell viability in compound treated samples versus DMSO-control treated samples was calculated as follows: (total viable cells/total cells)compound/(total viable cells/total cells)DMSO.

Row | SMILES | toxicity at concentrations required to block HIV-1 replication
1 | O=C(NC(=S)NNC(=O)c1ccccc1O)c1ccc(-c2ccccc2)cc1 [Compound 833, N-([2-(2-hydroxybenzoyl)hydrazino]carbonothioyl}-4-biphenylcarboxamide] | displayed toxicity
2 | COc1ccc(C=NNC(=O)c2ccccc2O)cc1O [Compound 892, 2-hydroxy-N′-(3-hydroxy-4-methoxybenzylidene)benzohydrazide] | displayed toxicity
